Like-named read-outs stand apart in the source and are kept apart here.

In test [1] the target is porcine liver carboxylesterase (PLCE) (Sus scrofa, UniProt Q29550). The format is biochemical.
Test [2] has as its target human leukocyte elastase (huLE) (Homo sapiens, UniProt P08246). Kind of test: biochemical. The note with it: IC50 (μM) huLE.
The target in a further test is GS-7340 Ester Hydrolase (Homo sapiens, UniProt P10619). The format is biochemical.
For test [3], the system named is recombinant HIV-1 10I 48V 71V 82A 90M. Kind of test: microbe, parasite or virus in culture. The format is cell-based. Conditions: protease mutations 10I 48V 71V 82A 90M.
The test system of test [4] is recombinant HIV-1 10I 84V 71V 73S 90M. Kind of test: microbe, parasite or virus in culture. The format is cell-based. The note with it: protease mutations 10I 84V 71V 73S 90M.
Test [5] deals with recombinant HIV-1 10R 46I 82T 84V. The test can be described thus: Cross-Resistance Profile Assay. Conditions: protease mutations 10R 46I 82T 84V. The format is cell-based.
Test [6] has as its system recombinant HIV-1 48V 54V 71V 82S. The test can be described thus: microbe, parasite or virus in culture. The format is cell-based. The note with it: protease mutations 48V 54V 71V 82S.
Test [7] has as its system recombinant HIV-1 46I 84A. Kind of test: Cross-Resistance Profile Assay. The format is cell-based. Conditions: protease mutations 46I 84A.
The target in test [8] is T1, recombinant HIV-1 protease (Human immunodeficiency virus type 1 group M subtype B, UniProt P04585).
T1 construct: Enzyme: recombinant HIV-1 protease expressed in E.Coli; purchased Bachem California, Inc. H-9040; host or cells: E. coli
The test can be described thus: biochemical. The note with it: Ki.

The subject of test [9] is wild-type HIV-1 strain IIIB. The test can be described thus: microbe, parasite or virus in culture. The note with it: Human immunodeficiency virus 1, IIIB. The format is cell-based.
Test [10] deals with recombinant HIV-1 strains with resistance mutations in the protease gene. Kind of test: Cross-Resistance Profile Assay, whole panel. The format is cell-based. The note with it: {}.
For another test, the system named is mutant HIV-1 I84V/L90M. Kind of test: Resistance Evaluation, I84V/L90M fold change. The format is cell-based. Conditions: EC50 of mutant I84V/L90M relative to wild type; class symbols.
Test [11] relates to recombinant HIV-1 46I 47V 50V. Kind of test: microbe, parasite or virus in culture. The format is cell-based. The note with it: protease mutations 46I 47V 50V.
Test [12] concerns recombinant HIV-1 10F 46I 71V 82T 90M. The test can be described thus: Cross-Resistance Profile Assay. The format is cell-based. The note with it: protease mutations 10F 46I 71V 82T 90M.
In test [13] the test system is recombinant HIV-1 10I 48V 54V 82A. Kind of test: microbe, parasite or virus in culture. Conditions: protease mutations 10I 48V 54V 82A. The format is cell-based.
Test [14] deals with recombinant HIV-1 54V 71V 82S. Kind of test: Cross-Resistance Profile Assay. The format is cell-based. The note with it: protease mutations 54V 71V 82S.
The subject of test [15] is recombinant HIV-1 30N 50S 82I 88D. The test can be described thus: microbe, parasite or virus in culture. The format is cell-based. The note with it: protease mutations 30N 50S 82I 88D.

Chain of GS-7340 Ester Hydrolase (P10619 29-480): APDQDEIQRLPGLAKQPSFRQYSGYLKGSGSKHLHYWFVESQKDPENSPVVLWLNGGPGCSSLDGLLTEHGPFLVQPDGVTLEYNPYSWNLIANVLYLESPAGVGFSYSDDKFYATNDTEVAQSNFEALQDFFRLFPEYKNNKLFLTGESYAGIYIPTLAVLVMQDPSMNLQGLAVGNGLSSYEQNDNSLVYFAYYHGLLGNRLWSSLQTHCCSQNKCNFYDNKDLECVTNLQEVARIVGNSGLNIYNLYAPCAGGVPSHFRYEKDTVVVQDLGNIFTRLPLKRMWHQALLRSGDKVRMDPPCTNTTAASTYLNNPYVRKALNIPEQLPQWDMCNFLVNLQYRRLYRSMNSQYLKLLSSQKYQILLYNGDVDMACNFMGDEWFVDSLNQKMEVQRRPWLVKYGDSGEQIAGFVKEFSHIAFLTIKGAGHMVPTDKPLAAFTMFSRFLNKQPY
Chain of porcine liver carboxylesterase (PLCE) (Q29550 whole entry): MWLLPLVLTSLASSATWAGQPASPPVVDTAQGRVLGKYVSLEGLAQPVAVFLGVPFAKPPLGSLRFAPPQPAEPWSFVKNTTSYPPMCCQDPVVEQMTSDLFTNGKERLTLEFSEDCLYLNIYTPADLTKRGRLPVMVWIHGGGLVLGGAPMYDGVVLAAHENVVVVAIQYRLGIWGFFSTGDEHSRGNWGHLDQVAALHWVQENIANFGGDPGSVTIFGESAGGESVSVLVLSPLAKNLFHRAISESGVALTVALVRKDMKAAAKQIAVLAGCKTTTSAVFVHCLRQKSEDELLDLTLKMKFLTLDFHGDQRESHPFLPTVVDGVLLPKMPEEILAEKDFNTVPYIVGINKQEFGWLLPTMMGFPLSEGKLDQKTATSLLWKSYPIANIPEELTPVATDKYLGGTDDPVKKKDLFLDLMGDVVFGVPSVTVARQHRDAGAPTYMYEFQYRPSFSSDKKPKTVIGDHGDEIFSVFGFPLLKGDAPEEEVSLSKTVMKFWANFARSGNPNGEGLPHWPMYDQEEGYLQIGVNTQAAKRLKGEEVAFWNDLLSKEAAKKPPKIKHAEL
Chain of human leukocyte elastase (huLE) (P08246 30-267): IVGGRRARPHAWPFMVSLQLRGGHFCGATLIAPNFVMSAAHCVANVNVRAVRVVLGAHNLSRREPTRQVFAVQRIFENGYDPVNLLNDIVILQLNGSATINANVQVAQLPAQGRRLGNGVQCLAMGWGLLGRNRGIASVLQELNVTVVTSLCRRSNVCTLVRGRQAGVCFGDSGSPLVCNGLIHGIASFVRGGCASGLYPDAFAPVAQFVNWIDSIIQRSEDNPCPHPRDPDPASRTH

Turning to `O=c1oc(Cl)c(Cl)c2ccccc12` [3,4-dichloroisocoumarin], the IC50 was 250 µM in test [1], 250 µM in test [1] (read-out: IC50 (μM) PLCE) and 3 µM in test [2]. In addition, the “Relative Activity (%)” value on GS-7340 Ester Hydrolase (1 µM) is listed as 100%; on GS-7340 Ester Hydrolase (10 µM) it was 25%; on GS-7340 Ester Hydrolase (100 µM), 5%; on GS-7340 Ester Hydrolase (1000 µM), below 2%.
Turning to `Cc1cccc(C)c1OCC(=O)N[C@@H](Cc1ccccc1)[C@@H](O)C[C@H](Cc1ccccc1)NC(=O)[C@H](C(C)C)N1CCCNC1=O` [Lopinavir, reference compound], the “Fold Change in EC50 Relative to WT HIV-1” value in [3] is 4.5 fold; in test [4], 11 fold; in test [5], 11 fold; in test [6] it was 60 fold; in [7] it was 9 fold; in test [11], 19 fold. Further, the “Fold Change in EC50 Relative to WT HIV-1” value in test [12] was found to be 7.5 fold. The Ki in test [8] was 0.01 to 0.1 nM. Besides, the EC50 in test [9] was below 0.05 µM. Also, the “Total No. of Resistant Viruses” value in test [10] came to 6. In addition, in the test with mutant HIV-1 I84V/L90M, the I84V/L90M fold change result was “++ (>10 to ≦30)”.
`CCC[C@@]1(CCc2ccccc2)CC(O)=C([C@H](CC)c2cccc(NS(=O)(=O)c3ccc(C(F)(F)F)cn3)c2)C(=O)O1` [Tipranavir, reference compound]: the “Fold Change in EC50 Relative to WT HIV-1” value in test [13] came to 0.4 fold; in test [3], 0.3 fold; in [5], 5 fold; in [6], 2 fold; in test [14], 3.5 fold; in [7], 1 fold. The “Fold Change in EC50 Relative to WT HIV-1” value in [15] worked out at 0.5 fold; in [11], 0.5 fold; in test [12], 3 fold. For the same compound, the EC50 in [9] is 0.05 to 0.5 µM. Further, the “Total No. of Resistant Viruses” value in test [10] came out at 1. In the test on mutant HIV-1 I84V/L90M, the I84V/L90M fold change entry is reported as “+ (>3 to ≦10)”.

The term IC50 denotes the concentration that inhibits the measured activity by half. Usually Ki stands for the equilibrium dissociation constant of an inhibitor or competing ligand from its target. As a reminder, the EC50 is the concentration at which the effect is half-maximal. Higher therefore signals weaker potency.

Source of the values: patent US20040121316A1 (priority 2002, published 2004).
